Source: US11013780B2, “Methods of treating female infertility” (Myovant Sciences GmbH, priority 2016, dated 2021)
Where a SMILES comes first, the peptide text is derived from it. [ ]: non-standard residue; d: D form. Arg(Me) = CNC(=N)NCCC[C@H](N)C(=O)O; Hyp = O=C(O)[C@@H]1C[C@@H](O)CN1; azaGly = NNC(=O)O

Assays:
[1] = test system: serum LH and FSH; test: Single dose pharmacodynamics (LH, FSH), European men; assay type: in vivo, human
Description: Another study was a single dose, phase 1 clinical study of API-MA in healthy men age 50 to 76 years. Subjects enrolled in the first […] cohorts received 0.001, 0.003, 0.01, 0.03, 0.1 or 0.3 mg of API-MA or placebo by single SC bolus. Subjects enrolled in the seventh, eighth, and ninth cohorts received 1, 3, or 6 mg of API-MA or placebo by single 2-hour SC infusion. The pharmacodynamics of each of the following hormones was assessed: LH and FSH. PRL, TSH, cortisol, sex hormone binding globulin (SHBG), and plasma ACTH (also known as corticotropin) concentrations were measured on the day prior to dosing and on day 4, the Final Visit. To measure serum concentrations of LH and FSH in the bolus cohorts, blood specimens were collected at the following nominal times: the day prior to dosing, predose, and 0.083, 0.25, 0.75, 1, 2, 3, 4, 6, 8, 12, 16, 24, 36, 48 and 72 hours postdose. In the infusion cohorts, blood specimens were collected at the following nominal times: the day prior to dosing, predose or start of the infusion, and 0.5, 1, 1.5, 2 (end of infusion), 2.25, 2.5, 3, 4, 6, 8, 10, 14, 18, 26, 50 and 74 hours after the start of infusion. Serum LH concentrations increased after a single SC bolus of API-MA, as well as after a single 2-hour SC infusion of API-MA. The concentrations peaked between 6 and 12 hours and returned to baseline by 72 hours. The magnitudes and durations of the LH concentration increases were similar across the dose range, 0.001 to 6 mg.

[2] = biological target: T1, rat KISS1R (Rattus norvegicus, UniProt Q924U1); test: Intracellular Ca2+ mobilization (fluorometric imaging plate reader), rat KISS1R; assay type: cell-based
T1 construct: expressed in transfected cells; host or cells: Chinese hamster ovary dihydrofolate reductase negative cells
Description: (§1) The effects of API-MA on intracellular Ca^2+ mobilization in KISS1R-expressing recombinant cells were evaluated by performing the fluorometric imaging plate reader assay.

[3] = Multiple-dose PK, SC bolus then continuous 13-day SC infusion, healthy European men; details: for Css / AUC(0-t) / Cmax: European men, geometric mean (% CV); for AUC(0-t): AUC (0-tlqc) (equal to AUC (0-24))
Description: Another study was a phase 1 clinical study of multiple-dose administration of API-MA. The study was conducted in France. It was a randomized, double-blind, placebo-controlled, parallel-group, ascending dose study of the safety, tolerability, plasma PK, and endocrine pharmacodynamic effects of API-MA administered as an SC bolus (0.1 mg) on day 1 followed by continuous SC infusion (i.e., 24 hr/day) from Day 2 to Day 14 (0.01, 0.1, 0.3, or 1.0 mg/day), which was expected to suppress testosterone.

[4] = test system: monkey KISS1R; test: Intracellular Ca2+ mobilization (fluorometric imaging plate reader), monkey KISS1R; assay type: cell-based
Description: as §1

[5] = biological target: T2, dog KISS1R (Canis lupus familiaris, UniProt A0A8I3S0V2); test: Intracellular Ca2+ mobilization (fluorometric imaging plate reader), dog KISS1R; assay type: cell-based
T2 construct: expressed in transfected cells; host or cells: Chinese hamster ovary dihydrofolate reductase negative cells
Description: as §1

[6] = test system: serum LH, FSH, E2; test: Physiological effects in healthy women, follicular phase (Example 11, Part 1); assay type: in vivo, human
From the text: The study population included healthy women, aged 18-35 years, with BMI 18-30 kg/m^2, no medical problems and not taking any medications or hormonal contraception. Three healthy, female subjects were selected and randomized and received a single dose of each of the three study regimens noted below (one regimen per study period). All women were scheduled for three Study D1 Visits (each during the follicular phase of the menstrual cycle). […] The order in which a subject receives one of the three study regimens was determined by a randomization matrix.
The study included a screening visit to collect participants' full medical history and to conduct a general medical examination and blood testing. The three study periods each consisted of three planned study visits per study period (excluding screening and follow-up). Study Day 1 (SD1) Visit of each study period occurred during the follicular phase of the menstrual cycle (days 1-4), and the SD2 and SD3 Visits occurred at 24- and 48-hrs post-dose, respectively (FIG. 14). A follow-up phone call happened 7-10 days post-dose in each study period.
Immediately following dosing, serum LH, FSH, E2 (oestradiol), P (progesterone) and SHBG levels were assessed at 30 minute intervals for up to 14 hours (FIGS. 15A-15C, 16A-16C, 17, 18, 19, 20A, and 20B). These PD variables were also assessed at 24 (Study Day 2) and 48 hours (Study Day 3) post-dose. SHBG changes less rapidly and was measured every 3 hours to reduce blood volume.
Up to 3 mL of blood volume were required for measurement of serum reproductive hormone levels (LH, FSH, E2 and P). Blood samples for serum analysis were collected in plain Vacutainer tubes (Beckton Dickson, Franklin Lakes, N.J., USA), and spun after clotting (˜1 hour at room temperature) for 10 minutes at 3000 rpm. Serum was then stored in a locked freezer at −20° C. until assay of serum reproductive hormone levels.

[7] = in vitro; assay type: in vitro ADME, rats, dogs, monkeys, humans; details: rat, dog, monkey, human, plasma
Description: The in vitro distribution ratios of [^14C]API-MA into the blood cells at the concentrations of 0.01, 0.1, 1, and 10 μg/mL API-FB (free form) were 7.8%, 8.0%, 7.1%, and 4.8% for rats, 2.4%, 2.0%, 1.6%, and 1.2% for dogs, and 2.0%, 0.0%, 0.0%, and 0.5% for humans, respectively. […] The in vitro plasma protein binding ratios of [^14C]API-FB in rats, dogs, monkeys, and humans were determined by the ultracentrifugation method. In addition, the protein binding to human serum albumin (HSA), α1-acid glycoprotein (AGP), and HSA/AGP was investigated. […] In rats and dogs, a slight decrease in the binding ratio at the concentration range between 0.1 and 1.0 μg/mL API-FB was observed. In monkeys and humans, the binding was independent of the drug concentrations from 0.01 to 10 μg/mL API-FB.

[8] = male, human, plasma, sc, 0.1 mg, SC bolus 0.1 mg on Day 1, dosing group 0.01 mg/day
[9] = male, human, plasma, sc, 0.1 mg, SC bolus 0.1 mg on Day 1, dosing group 0.1 mg/day
[10] = male, human, plasma, sc, 0.1 mg, SC bolus 0.1 mg on Day 1, dosing group 0.3 mg/day
[11] = male, human, plasma, sc, 0.1 mg, SC bolus 0.1 mg on Day 1, dosing group 1.0 mg/day

T1 sequence (Q924U1 whole entry): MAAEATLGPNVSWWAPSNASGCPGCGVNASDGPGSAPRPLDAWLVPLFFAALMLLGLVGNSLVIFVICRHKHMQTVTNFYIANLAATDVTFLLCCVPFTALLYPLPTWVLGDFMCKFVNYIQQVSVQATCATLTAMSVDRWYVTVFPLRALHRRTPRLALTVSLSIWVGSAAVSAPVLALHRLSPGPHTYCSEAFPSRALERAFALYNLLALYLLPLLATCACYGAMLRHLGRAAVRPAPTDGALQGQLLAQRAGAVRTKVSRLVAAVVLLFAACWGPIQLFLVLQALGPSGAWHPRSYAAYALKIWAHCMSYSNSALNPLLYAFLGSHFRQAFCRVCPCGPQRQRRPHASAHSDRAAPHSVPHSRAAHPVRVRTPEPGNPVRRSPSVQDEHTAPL
T2 sequence (A0A8I3S0V2 1-382): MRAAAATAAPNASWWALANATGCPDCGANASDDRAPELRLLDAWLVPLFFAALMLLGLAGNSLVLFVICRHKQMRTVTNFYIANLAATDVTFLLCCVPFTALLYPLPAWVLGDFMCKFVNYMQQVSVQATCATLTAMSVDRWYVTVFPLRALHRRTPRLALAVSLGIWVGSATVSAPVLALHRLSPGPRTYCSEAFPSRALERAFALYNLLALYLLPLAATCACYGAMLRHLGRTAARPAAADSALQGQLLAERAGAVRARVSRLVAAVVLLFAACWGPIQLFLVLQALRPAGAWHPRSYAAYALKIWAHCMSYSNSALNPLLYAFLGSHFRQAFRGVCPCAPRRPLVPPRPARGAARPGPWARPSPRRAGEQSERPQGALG

SMILES: CC(=O)O.CNC(=N)NCCC[C@H](NC(=O)[C@H](CC(C)C)NC(=O)NNC(=O)[C@H](Cc1ccccc1)NC(=O)[C@@H](NC(=O)[C@H](CC(N)=O)NC(=O)[C@@H]1C[C@@H](O)CN1C(=O)[C@@H](Cc1ccc(O)cc1)NC(C)=O)[C@@H](C)O)C(=O)N[C@@H](Cc1c[nH]c2ccccc12)C(N)=O [API-MA, 2-(N-Acetyl-D-tyrosyl-trans-4-hydroxy-L-prolyl-Lasparaginyl-L-threonyl-L-phenylalanyl)-hydrazinocarbonyl-L-leucyl-Nω-methyl-L-arginyl-L-tryptophanamide monoacetate] (Ac-[dY][Hyp]NTF[azaGly]L[Arg(Me)]W-NH2)
- Changes in serum SHBG, prolactin, TSH, corticotropin, cortisol ([1]; any dose level): no relevant changes
- Time of FSH return / decline towards baseline ([1]; single dose 0.001 to 6 mg): ≤ 72 h
- Time of LH return to baseline ([1]; single dose 0.001 to 6 mg): ≤ 72 h
- EC50 [2]: 0.632 nM
- Ratio of EC50 of API-MA to kisspeptin (45-54) ([2]; rat KISS1R): 2.0
- Css ([3]; continuous 13-day SC INF 0.01 mg/day (Days 2-14)): 20.2 (34) pg/mL
- Css ([3]; continuous 13-day SC INF 0.1 mg/day (Days 2-14)): 226 (17) pg/mL
- Css ([3]; continuous 13-day SC INF 0.3 mg/day (Days 2-14)): 708 (19) pg/mL
- Css ([3]; continuous 13-day SC INF 1.0 mg/day (Days 2-14)): 2280 (16) pg/mL
- CL/F ([3]; male, human, plasma, sc, 0.01 mg/day): 343 mL/min
- Tmax ([3]; male, human, plasma, sc, 0.1 mg): 30 min
- AUC(0-t) [3, 8]: 5.08 ng·h/mL
- AUC(0-t) [3, 9]: 4.28 ng·h/mL
- AUC(0-t) [3, 10]: 4.68 ng·h/mL
- AUC(0-t) [3, 11]: 4.05 ng·h/mL
- Cmax [3, 8]: 1.87 ng/mL
- Cmax [3, 9]: 1.59 ng/mL
- Cmax [3, 10]: 1.65 ng/mL
- Cmax [3, 11]: 1.29 ng/mL
- CL/F ([3]; male, human, plasma, sc, 0.1 mg/day): 308 mL/min
- CL/F ([3]; male, human, plasma, sc, 0.3 mg/day): 295 mL/min
- CL/F ([3]; male, human, plasma, sc, 1 mg/day): 305 mL/min
- EC50 ([4]; CHO dhfr- cells expressing monkey KISS1R): 0.074 nM
- Ratio of EC50 of API-MA to kisspeptin (45-54) ([4]; monkey KISS1R): 0.94
- EC50 [5]: 2.01 nM
- Ratio of EC50 of API-MA to kisspeptin (45-54) ([5]; dog KISS1R): 1.2

SMILES: CNC(=N)NCCC[C@H](NC(=O)[C@H](CC(C)C)NC(=O)NNC(=O)[C@H](Cc1ccccc1)NC(=O)[C@@H](NC(=O)[C@H](CC(N)=O)NC(=O)[C@@H]1C[C@@H](O)CN1C(=O)[C@@H](Cc1ccc(O)cc1)NC(C)=O)[C@@H](C)O)C(=O)N[C@@H](Cc1c[nH]c2ccccc12)C(N)=O [Compound 1, 2-(N-Acetyl-D-tyrosyl-trans-4-hydroxy-L-prolyl-L-asparaginyl-L-threonyl-L-phenylalanyl)-hydrazinocarbonyl-L-leucyl-Nω-methyl-L-arginyl-L-tryptophanamide] (Ac-[dY][Hyp]NTF[azaGly]L[Arg(Me)]W-NH2)
- FSH response [6]: very low compared to the LH response
- Time of peak serum LH post-dosing ([6]; 0.003 nmol/kg SC): 14 to 36 h
- Duration of LH surge ([6]; 0.03 nmol/kg SC): approximately 14 hours
- End of LH surge after administration ([6]; 0.03 nmol/kg SC): 28 h
- Time of peak serum LH after administration ([6]; 0.03 nmol/kg SC): 18 to 20 h
- fraction unbound [7]: 0.267 to 0.447
